What all share (format): cell-based
For assay [1], the system named is vesicular stomatitis viruses (VSV). The conditions noted are these: human amnion-derived FL cells.
Assay [2] relates to sindbis viruses. The experiment in a line: antiviral activity in the presence of interferon neutralizing antibodies (FL cells, sindbis viruses). The conditions noted are these: MIF-1 (anti-IFN α), YSB-1 (anti-IFN β), anti-IFN γ antibodies added. The protocol: In order to deny the possibility that the antiviral activity of peptide SYR6 is attained by inducing endogenous production of interferon, the antiviral activity in the presence of various interferon neutralizing antibodies was examined. FL cells were inoculated on wells of a 96-well microtiter plate (IWAKI GLASS CO., LTD.) at 3.5×10^5 cells/well and cultured for 24 hours. Thereafter, peptide SYR6 was added at the concentration shown in FIG. 5 (0.9 μM to 120 μM) and cultured for 24 hours. […] Thereafter, sindbis viruses were added to each well and cultured for 15 hours. In this case also, various neutralizing antibodies were added and cultured under the same conditions as described above. The culture solution was discarded, the plate was immersed in a crystal violet solution containing formalin for about 15 minutes, and living cells were immobilized and stained. […] Therefore, the possibility that the antiviral activity of peptide SYR6 was attained by inducing the production of endogenous interferon was denied.

The subject of assay [3] is sindbis viruses. The experiment in a line: antiviral bioassay using FL cells and sindbis viruses. The protocol:
The antiviral activity of the resultant synthetic peptides was inspected by a bioassay method using human amnion-derived FL cells and sindbis viruses (Armstrong, J. A., Methods in Enzymology, 78, 381-387 (1981)). FL cells were inoculated on wells of a 96-well microtiter plate (IWAKI GLASS CO., LTD.) at 3.5×10^5 cells/well and cultured for 24 hours. Thereafter, each peptide was added at the concentration shown in FIG. 3 (0.9 μM to 120 μM) and cultured for 24 hours. […] Thereafter, sindbis viruses were added to each well and cultured for 15 hours. The culture solution was discarded, the plate was immersed in a crystal violet solution containing formalin for about 15 minutes, and living cells were immobilized and stained.
In order to identify an amino acid residue that plays an important role in expressing the antiviral activity of peptide SYR6, 12 types of varied peptides were prepared through chemical synthesis in which each of all the amino acid residues other than alanine of SYR6 were respectively substituted with alanine (peptides were successively designated as N1 to N15 in order from the N-terminus side in accordance with the number of the amino acid residue converted into alanine. Since the fourth, eighth, and ninth residues are alanine, excluding these, a total of 12 types of peptides was prepared). The sequences are shown in the lower part of FIG. 7. […]

In the case of “SYR6: synthetic 15-residue peptide with the sequence of phage 6, SEQ ID NO: 1 (SVQARWEAAFDLDLY; Designed peptide based on the DNA sequence of phage binding to monoclonal antibody YSB-2)”, the “concentration at which the peptide began to exhibit antiviral activity” value in assay [1] is 30 µM; in assay [3] (human amnion-derived FL cells, peptide 0.9 μM to 120 μM for 24 hours) it was 30 µM. The “antiviral activity in the presence of interferon neutralizing antibodies” value in assay [2] is given as “not affected at all”. Besides, in assay [3] (FL cells, SYR6 HPLC peaks measured separately), the “antiviral activity of the synthetic peptides (FIG. 3)” value is recorded as “activity was recognized”.

For the origin of these results see patent US20030086902A1, “Cytokine-like peptide” (priority 1999, published 2003).
